Measured values reported in US20180286508A1, “DETERMINATION OF FAVORABLE DATE(S) FOR THERAPEUTIC TREATMENT DELIVERY” (Mayo Foundation for Medical Education and Research, priority 2015, published 2018).
“And” between values parts separate entries of the source, which are not always exact repeats. Identical values can stand only once.

Columns and labels:
[1] = standard TMZ doses, 200 mg/m2 daily over 5 days, cycles every 28 days; cited from earlier work
[2] = system: non proliferating peripheral blood lymphocytes; conditions: therapeutical doses, in vitro; cited from earlier work
[3] = system: patients with unresectable stage IV malignant melanoma; experiment: Clinical trial of timed TMZ chemotherapy (timed on CRP oscillation) in stage IV melanoma patients; format: in vivo, human
Text: In an example clinical trial described herein, the patient population included patients with unresectable stage IV malignant melanoma. Eligible patients had unresectable, histologically confirmed stage IV disease, age over 18 years, measurable disease as defined by the Response Evaluation Criteria in Solid Tumors (RECIST), Eastern Cooperative Oncology Group (ECOG) performance status (PS) of 0-2, and life expectancy ≥3 months. Both newly diagnosed, previously untreated patients, as well as patients who have had prior therapy for their metastatic disease were enrolled.
Treatment was initiated with temozolomide (TMZ) 150 mg/m^2 on days 1-5 on cycle 1 and the dose was increased to 200 mg/m^2 for all subsequent cycles if tolerated. Patients were treated every 4 weeks until progression, unacceptable toxicity or patient refusal. Prior to initiation of first chemotherapy cycle, eligible patients underwent peripheral blood testing for immunological biomarkers (immune variables) every 2-3 days for a period of two weeks. The blood samples were tested for a total of 52 variables; that is, 52 measurements of cytokine concentrations and cell counts in blood samples.
The time series of six CRP concentration measurements was fitted to a sine curve. The curve was then extrapolated for two periods and the next consecutive peaks of CRP concentration were predicted. Based on the periodicity of CRP oscillations, TMZ chemotherapy was initiated prior to the estimated time of the next CPR peak, or on day 14 post-registration if the peak could not be identified.
The purpose of the curve fitting analysis is to determine whether any of the measured immune variables change in a predictable fashion following a cyclical pattern (dynamic equilibrium of immunity and cancer). Therefore, the goal of the curve fitting analysis is to assess whether concentrations of plasma cytokines/chemokines and immune cells fluctuate, and if so, to determine whether these fluctuations follow a mathematically predictable cyclical pattern. To that end, the plasma levels for the 52 immune variables ([…] different cytokines/chemokines/growth factors and the percentage of 22 immune cell subsets) in serial blood samples collected every 2-3 days prior to initiation of TMZ therapy were measured in 10 patients with metastatic malignant melanoma. […] Technical reproducibility was assessed by the coefficient of variation among duplicates (average coefficient of variation was 5.13% for 1593 data points).

[4] = system: CD8+ effector T-cells and dendritic cells (DCs); conditions: therapeutical doses, in vitro; cited from earlier work
[5] = system: patients with metastatic melanoma (stage IV); experiment: Phase II clinical trial MC1076 of timed administration of TMZ; format: in vivo, human; conditions: for number of patients with PFS >4 months: 17 patients
Text: Eligible patients had unresectable, histologically confirmed stage IV disease, age over 18 years, measurable disease as defined by the Response Evaluation Criteria in Solid Tumors (RECIST), Eastern Cooperative Oncology Group (ECOG) performance status of 0-2, and life expectancy≥3 months (See Table 10). Both previously untreated patients and patients who have had prior therapy for their metastatic disease (excluding prior exposure to TMZ) were eligible. All patients provided signed informed written consent, and the study was approved by the Mayo Clinic Rochester Institutional Review Board. The TMZ dose was 150 mg/m2 on days 1-5 of cycle 1 and was increased to 200 mg/m2 on days 1-5 each month for all subsequent cycles if well tolerated. Patients were treated every 28 days until progression, unacceptable toxicity or patient refusal. Prior to initiation of first chemotherapy cycle, eligible patients underwent serial daily peripheral blood testing for 10 days of 69 immune biomarkers (42 cytokines, and 27 immune cell subtypes) per time point/patient. At the end of the sample collections, all data was jointly analyzed and a day for individualized TMZ delivery was calculated according to the proposed model (below). Patients received their therapy during the time, predicted by the model. All patients were followed for clinical outcomes.
Time-dependent profiles of blood concentration of IL-12p70, CD197/CD206, IL-1ra were built based on a series of pre-treatment measurements. The data was fitted to a sine curve and the extrapolated for a period of 10 days. Chemotherapy was initiated on the day when the extrapolated value of the combination of these immune parameters was at maximum.
The MC1076 study was designed to assess the anti-tumor activity of timed administration of TMZ. A two-stage phase II clinical trial design will be used to test the hypothesis that the 4 month PFS rate is at most 45% against the alternative hypothesis that the 4 month PFS rate is at least 65%. Progression-free survival was defined as the time from registration to documentation of disease progression or death without disease progression documented.
Analysis of infradian (multi-day) dynamics in systemic immunity of patients with metastatic melanoma. Based on data, both published and from our lab, we hypothesized that the anti-tumor systemic immune response in patients with cancer is not a static but a dynamic event. In order to study the global temporal behavior of systemic anti-tumor immunity, we conducted a phase II clinical trial (MC1076; NCT01328535). In this study, patients with metastatic melanoma underwent a period of immunological monitoring consisting of 10 daily PB collections (10 mL) over 12 days prior to initiation of therapy with TMZ. There was no blood collection on weekend days. At the end of the sample collection period, samples were batched analyzed (to minimize inter-assay variability for a given patient) for measurement of dynamic changes of plasma cytokines and immune cell subsets using established, standardized, and Good Laboratory Practice (GLP)-validated methodology in our laboratory.^35 Time-dependent profiles of immune variables (cytokines and immune cell subsets) were then analyzed and an optimal day for initiation of TMZ therapy was prospectively computed by the algorithm described below. […]

[6] = LMR <1 on the day of TMZ initiation
[7] = LMR >1 on the day of TMZ initiation

**Q.** Which serum concentrations [1] does the source give for `Cn1nnc2c(C(N)=O)ncn2c1=O` [TMZ, temozolomide] here?
**A.** Its serum concentrations is “up to 50 μM”.

**Q.** What about the “impairment of non proliferating peripheral blood lymphocytes” value [2] of the same compound?
**A.** Its value is “did not impair”.

**Q.** And the PFS ([3]; Table 4, one line per patient, 8 patients with metastatic cutaneous melanoma, TMZ 150 to 200 mg/m^2 days 1-5 every 4 weeks)?
**A.** The PFS was 70 days and 68 days and 37 days and 916 days and 748 days and 132 days and 91 days and 77 days.

**Q.** And the PFS ([3]; Table 6, one line per patient, same 8 melanoma patients)?
**A.** Its PFS is 37 days and 91 days and 32 days and 77 days and 916 days and 841 days and 68 days and 70 days.

**Q.** And the “average PFS” value ([3]; four patients with sum of ranks of IL12p70 and CD197/CD206 above 15)?
**A.** The value was 68 days.

**Q.** What about the “average PFS” value ([3]; four patients with sum of ranks of IL12p70 and CD197/CD206 below 15) of the same compound?
**A.** Its value is 466 days.

**Q.** And the PFS ([3]; two patients with disorganized (non-curve-fitting) anti-tumor immune responses)?
**A.** Its PFS is 71 days and 74 days.

**Q.** What about the “impairment of the function of CD8+ effector T-cells and dendritic cells” value [4] of the same compound?
**A.** The value was “did not impair”.

**Q.** And the “number of patients with PFS <4 months” value [5, 6]?
**A.** The value was 7.

**Q.** What about the “number of patients with PFS >4 months” value [5, 6] of the same compound?
**A.** The value was 1.

**Q.** What about the “number of patients with PFS <4 months” value [5, 7] of the same compound?
**A.** The value was 3.

**Q.** And the “number of patients with PFS >4 months” value [5, 7]?
**A.** Its value is 6.

**Q.** What about the PFS ([5]; Table 11, one line per patient, 24 patients, time from registration to progression, CR = complete response) of the same compound?
**A.** The PFS was 644 days and 242 days and 184 days and 47 days and 83 days and 301 days and 136 days and 752 days and 102 days and 78 days and 39 days and 107 days and 72 days (2×) and 53 days and 48 days and 80 days and 73 days and 130 days and 77 days and 133 days and 198 days.
